The record followed here is article PMC4466525, “Design, Synthesis and Structure-Activity Relationship Studies of Novel Survivin Inhibitors with Potent Anti-Proliferative Properties” (PLoS ONE, 2015).

The test system of series [1] is NCI/ADR-RES (ovarian cancer). The series is described as follows: NCI-60 five dose screening, NCI/ADR-RES. In kind it is cell-based. The settings on record: Homo sapiens, NCI-60 five dose. Here is the method:
(§1) Four compounds including the parental compound UC-112 were submitted to National Cancer Institute for its NCI-60 cell line screening, initially tested at one concentration (10 μM), and subsequently selected for full five concentration testing following the standard protocols disclosed by NCI [34]. In brief, cells were plated into 96 well micro-titer plates 24 h prior to the treatment of compound solution for 48 h, then the cell viability was read out through absorbance of sulforhodamine B (SRB) staining.

In a further series the test system is CYP3A. The series is described as follows: Cytochrome P450 inhibition, CYP3A. Conditions: human liver microsomes 0.1 mg/mL. In kind it is in vitro ADME. Here is the method: (§2) All these experiments were performed by a contract research service company, Eurofins Panlabs Inc. (Study Number 100017964). Aqueous solubility (μM) was determined using the shake-flask method by comparing the peak area of the principal peak in a calibration standard (200 μM) containing organic solvent (methanol/water, 60/40, v/v) with the peak area of the corresponding peak in a buffer sample. Metabolic stability study was carried out by incubating compound 4g with human liver microsomes. Metabolic stability which is expressed as percent of the parent compound remaining, was calculated by comparing the peak area of the compound at the time point relative to that at time-0. The half-life (T1/2) was estimated from the slope of the initial linear range of the logarithmic curve of compound remaining (%) vs. time. In the cytochrome P450 inhibition study, human liver microsomes (0.1 mg/mL) were incubated with different substrates and compound 4g for 10 minutes. After the incubation, peak areas corresponding to the metabolite of each substrate were recorded. The percent of control activity was then calculated by comparing the peak area obtained in the presence of compound 4g to that obtained in the absence of compound 4g. Subsequently, the percent inhibition was calculated by subtracting the percent control activity from 100.
For orientation: Microsomes from liver hold many membrane-bound enzymes, among them those of drug oxidation.

The next series deals with M14. Kind of series: Cell viability (MTS) anti-proliferative assay, M14. In kind it is cell-based. The settings on record: M14 human melanoma, 48 h treatment, n = 4, read-out: IC50 values ± SEM, M14. On the procedure:
(§3) The anti-proliferative effect of UC-112 and its analogs were tested in human melanoma (A375, M14 and M14/LCC6MDR1) and human prostate cancer (PC-3) cell lines. All the cell lines were purchased from ATCC (American Type Culture Collection, Manassas, VA). The cancer cells were cultured using the supplemented cell culture medium as described before at 37°C in a humidified atmosphere containing 5% CO2. 5000 cells in logarithm growing phase were seeded overnight into each well of a 96-well plate. Then the cells were continuously incubated with sequential diluted compound solution (10 nM to 100 μM, 100 μl per well) in cell culture medium.

The target in a further series is T1, survivin (Homo sapiens, UniProt O15392).
T1 construct: endogenous in cells; host or cells: A375 cells
Kind of series: Western blotting of survivin level, PC-3 cells. In kind it is cell-based. Conditions: 24 h. (Immunoblotting shows a protein as a band on a membrane.)

The subject of the next series is caspase 3/7. The series is described as follows: Caspase 3/7 functional assay (Caspase-Glo 3/7). Conditions: 1 μM, 24 h, A375 or PC-3 cells, N = 3. In kind it is cell-based, human. Here is the method: The caspase 3/7 activity of cancer cells treated by DMSO control or compound of interest was analyzed using Glo Caspase-Glo 3/7 kit from Promega Corporation (Madison, WI) as per manufacturer’s instructions in similar protocol as described before. The readings of relative luminescence unit were normalized by the cell viability read from the same well determined by compatible CytoTox-Fluor Cytotoxicity assay kit (Promega, WI).

Series [2] can be described thus: Metabolic stability in human liver microsomes. In kind it is in vitro ADME. Here is the method:
as §2

The subject of series [3] is renal cancer cell line UO-31. Kind of series: NCI-60 five dose screening, UO-31. In kind it is cell-based. Conditions: Homo sapiens, renal cancer UO-31. On the procedure:
as §1

The next series deals with T2, CYP1A (Homo sapiens, UniProt P05177).
T2 construct: tissue Eurofins Panlabs Inc. (contract research service) Study Number 100017964; host or cells: human liver microsomes
The series is described as follows: Cytochrome P450 inhibition, CYP1A. The format is in vitro ADME. Conditions: probe phenacetin, substrate phenacetin, human liver microsomes 0.1 mg/mL, read-out: % inhibition of control values, CYP1A. Here is the method: as §2

The next series deals with A375. Kind of series: Cell viability (MTS) anti-proliferative assay, A375. Conditions: A-375, A375 human melanoma, 48 h treatment, n = 4, read-out: IC50 values ± SEM, A375. In kind it is cell-based. Here is the method: as §3
For the next series, the system named is HCT-15 (colon cancer). Kind of series: NCI-60 five dose screening, HCT-15. The format is cell-based. Conditions: Homo sapiens, colon cancer HCT-15. Here is the method: as §1
In a further series the test system is M14/LCC6MDR1. The series is described as follows: Cell viability (MTS) anti-proliferative assay, multidrug-resistant M14/LCC6MDR1. The format is cell-based, human. On the procedure:
as §3

The next series addresses T3, CYP2C19 (Homo sapiens, UniProt P33261).
T3 construct: tissue Eurofins Panlabs Inc. (contract research service) Study Number 100017964; host or cells: human liver microsomes
The series is described as follows: Cytochrome P450 inhibition, CYP2C19. The format is in vitro ADME. Conditions: probe omeprazole, substrate omeprazole, human liver microsomes 0.1 mg/mL, read-out: % inhibition of control values, CYP2C19. On the procedure:
as §2

Another series concerns NCI-60 cell lines. The series is described as follows: NCI-60 cell line screening (SRB), whole panel. In kind it is cell-based, human. Here is the method:
as §1

Series [4] in a line: Aqueous solubility, shake-flask method. The format is physicochemical. The settings on record: PBS buffer, thermodynamic from solid, PBS pH 7.4, test concentration 200 μM. On the procedure:
as §2

Another series concerns XIAP, cIAP1 or cIAP2. The series is described as follows: DARTS assay, other IAPs. The format is binding, human. Conditions: 20 μM, pronase-digested A375 or M14 cell lysates. Here is the method:
Drug affinity responsive target stability (DARTS) assay was performed to identify the protein targets of UC-112 analogs in A375 or M14 cell lysates following the protocols described in the literature. Briefly, A375 or M14 lysates were prepared in non-denaturing M-PER lysis buffer (Thermo Fisher Scientific, Waltham, MA) with protease and phosphatase inhibitors. Then TNC (Tris, NaCl, CaCl2) buffer was added into cell lysates before the total protein concentration of lysate being determined by BCA protein assay kit (Thermo Fisher Scientific, Waltham, MA). The lysates were split into two groups: one group was added with compound of interest solution, the other group was added with same amount of vehicle (DMSO). The samples were mixed thoroughly and incubated at room temperature for 1 h. Then 10 mg/mL pronase stock solution was added into both compound treated or vehicle control groups to achieve the final dilution of 1:100, 1:300, 1:1000 and 1:3000. One aliquot of each group was kept as un-digested control. The proteolysis was performed at room temperature for 30 min before ice cold protease inhibitor stock being added into the mixture. Then SDS loading buffer was added into all the samples and heated to 70°C for 10 min. Finally, the results were analyzed by SDS-PAGE and immunoblotting.

Usually GI50 stands for the concentration giving 50% growth inhibition. Usually inhibition stands for how much of the control response was suppressed. What is called microsomal CLint is the capacity of the preparation to metabolise the compound, expressed as a volume cleared per time. Low values mean greater metabolic stability, high ones faster metabolism. For orientation: half-life means the time in which the quantity being followed falls by half. Lower therefore signals rapid decline. The term solubility denotes how much of the substance goes into solution per volume. A lower solubility goes with little dissolved substance.

Molecules are shown by their SMILES. ≈ marks a conversion by molar mass, not a printed value. Read-outs that look alike come from different tables or passages of the source.

T1 sequence (O15392 whole entry): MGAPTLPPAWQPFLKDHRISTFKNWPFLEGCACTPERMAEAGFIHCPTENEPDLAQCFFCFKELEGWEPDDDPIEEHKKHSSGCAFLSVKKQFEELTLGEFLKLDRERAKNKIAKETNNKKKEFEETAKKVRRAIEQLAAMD
T3 sequence (P33261 whole entry): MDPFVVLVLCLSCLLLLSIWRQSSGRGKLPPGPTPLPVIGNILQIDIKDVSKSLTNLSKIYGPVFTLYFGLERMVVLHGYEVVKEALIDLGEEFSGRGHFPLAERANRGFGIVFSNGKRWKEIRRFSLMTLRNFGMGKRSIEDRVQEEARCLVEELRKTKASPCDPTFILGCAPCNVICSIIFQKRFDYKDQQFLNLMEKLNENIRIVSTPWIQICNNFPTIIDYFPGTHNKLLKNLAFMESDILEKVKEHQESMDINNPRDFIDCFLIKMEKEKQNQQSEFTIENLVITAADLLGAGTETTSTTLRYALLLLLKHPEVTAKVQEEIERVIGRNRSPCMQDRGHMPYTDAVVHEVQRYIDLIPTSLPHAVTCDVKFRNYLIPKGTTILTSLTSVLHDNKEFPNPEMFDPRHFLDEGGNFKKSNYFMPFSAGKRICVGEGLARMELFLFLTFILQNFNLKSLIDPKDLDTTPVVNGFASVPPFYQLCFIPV
T2 sequence (P05177 2-516 limits assumed): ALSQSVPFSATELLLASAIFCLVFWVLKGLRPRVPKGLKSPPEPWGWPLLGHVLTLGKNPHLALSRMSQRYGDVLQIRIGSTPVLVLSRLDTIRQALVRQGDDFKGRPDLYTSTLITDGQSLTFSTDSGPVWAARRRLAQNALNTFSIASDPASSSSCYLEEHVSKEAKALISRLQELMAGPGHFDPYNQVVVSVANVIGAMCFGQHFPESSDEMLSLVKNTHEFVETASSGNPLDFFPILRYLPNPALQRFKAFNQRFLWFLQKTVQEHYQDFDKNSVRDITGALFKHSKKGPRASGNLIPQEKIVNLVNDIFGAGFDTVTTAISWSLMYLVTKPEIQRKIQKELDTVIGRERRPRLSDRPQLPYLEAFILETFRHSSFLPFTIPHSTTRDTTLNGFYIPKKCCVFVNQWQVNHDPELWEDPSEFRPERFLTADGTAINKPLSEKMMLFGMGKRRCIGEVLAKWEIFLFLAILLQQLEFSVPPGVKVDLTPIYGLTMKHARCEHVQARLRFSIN

Take `CC(C)c1ccc(COCc2cc(CN3CCCC3)c(O)c3ncccc23)cc1` [4g, 5-(((4-isopropylbenzyl)oxy)methyl)-7-(pyrrolidin-1-ylmethyl)quinolin-8-ol]: the GI50 in series [1] was found to be 50.1 nM; in [3], 52.5 nM; in the series on HCT-15 (colon cancer), 46.8 nM; in the series with NCI-60 cell lines (Homo sapiens, five dose testing, 48 h, SRB, read-out: Average GI50 over all cancer cell lines in the NCI-60 panel), 500 nM. In addition, the inhibition at 10 min in the series on CYP3A (probe midazolam, substrate midazolam, read-out: % inhibition of control values, CYP3A (midazolam)) turned out to be 3%; with CYP3A (probe testosterone, substrate testosterone, read-out: % inhibition of control values, CYP3A (testosterone)), 29%; at CYP1A, 18%; at CYP2C19, 45%. Further, the IC50 in the series with M14 was found to be 800 ± 200 nM; in the series with A375 it was 900 ± 100 nM; in the series with M14/LCC6MDR1 (Homo sapiens, 48 h, multidrug-resistant M14/LCC6MDR1 melanoma, 48 h treatment, MTS, n = 4, read-out: IC50 values ± SEM, M14/LCC6MDR1), 1800 ± 400 nM. The “Reduction of survivin level, PC-3” value on survivin (300 nM, lane density by ImageJ) is “over 50%”. In addition, the “Effect on survivin level, PC-3” value at survivin (gradient increasing dose) is on record as “dose-dependently suppressed survivin level”. Further, the “Caspase 3/7 activation relative to DMSO control group” value with caspase 3/7 was “up to 4 folds”. This compound also returned a microsomal CLint at 100 nM in series [2] (human) of 137 µL/min/mg. The half-life at 100 nM in series [2] (test concentration 100 nM) is 51 min. The “Resistance Index” value in the series with M14/LCC6MDR1 (IC50 on M14/LCC6MDR1 divided by IC50 on parental M14) stood at 2.3. The “Activity in NCI-60 one-concentration screening” value in the series on NCI-60 cell lines (one concentration, 10 μM) is “good activity”. Also, the solubility in series [4] stood at 149 µM (≈ 58.1 µg/mL). Besides, in the series on XIAP, cIAP1 or cIAP2, the “Effect on protease susceptibility of other IAPs (DARTS)” value was “negligible effects”.
